These results are taken from patent publication US20190239509A1, “METHOD OF CONTROLLING PLANTS” (SYNGENTA PARTICIPATIONS AG, priority 2016, published 2019).

Molecules are shown by their SMILES.

Assay type in all cases: in vivo
Data set [1] deals with ECHCG (Echinochloa crus-galli). The data set is described as follows: B1 glasshouse post-emergence herbicidal activity, ECHCG. The settings on record: after 14 days, 100=total damage, 0=no damage. The procedure: (§1) Seeds of a variety of test species HORVW (Hordeum vulgare—barley), ABUTH (Abutilon theophrasti), AMARE (Amaranthus retroflexus) and ECHCG (Echinochloa crus-galli) were sown in standard soil in pots. After cultivation for 10 days cultivation under controlled conditions in a glasshouse (at 24/16° C., day/night; 14 hours light; 65% humidity), the plants were sprayed with an aqueous spray solution derived from the formulation of the technical active ingredient in 0.6 ml acetone and 45 ml formulation solution containing 10.6% Emulsogen EL (Registry number 61791-12-6), 42.2% N-methyl pyrrolidone, 42.2% dipropylene glycol monomethyl ether (CAS RN 34590-94-8) and 0.2% X-77 (CAS RN 11097-66-8).
(§2) The test plants were then grown in a glasshouse under controlled conditions in a glasshouse (at 24/16° C., day/night; 14 hours light; 65% humidity) and watered twice daily. After 14 days, the test was evaluated (100=total damage to plant; 0=no damage to plant).

The subject of data set [2] is HORVW (Hordeum vulgare—barley). Nature of the data set: B1 glasshouse post-emergence herbicidal activity, barley. The conditions noted are these: after 14 days, 100=total damage, 0=no damage. The procedure:
as §1, §2

The subject of data set [3] is AMARE (Amaranthus retroflexus). The data set is described as follows: B1 glasshouse post-emergence herbicidal activity, AMARE. The settings on record: after 14 days, 100=total damage, 0=no damage. As for the experimental part:
as §1, §2

The test system of data set [4] is ABUTH (Abutilon theophrasti). Nature of the data set: B1 glasshouse post-emergence herbicidal activity, ABUTH. The settings on record: after 14 days, 100=total damage, 0=no damage. As for the experimental part: as §1, §2
In data set [5] the test system is Euphorbia heterophylla (EPPHL). Nature of the data set: B2 drilled field trial Brazil, post-emergence, EPPHL. The settings on record: 100 g ai/ha, 100=total damage, 0=no damage. The procedure:
(§3) Seeds of a variety of test species were used in drilled field trials to look at the control of important weed species present in corn crops as well as the effect on soybean (a volunteer crop in corn). Trials were carried out in Brazil in the summer season.
(§4) Plot size was 10-12 m^2, and two replicates were carried out per treatment. Plants were treated post-emergence at the 4 leaf stage. Fungicides and insecticides were used as necessary for plant health. The test was evaluated at 7 and 30 days after application (Amaranthus viridis (AMAVI), Bidens pilosa (BIDPI), Euphorbia heterophylla (EPPHL)) and 9 and 37 days after application (Brachiaria plantaginea (BRAPL) and soybean (Glycine max GLXMA) with 100=total damage to plant and 0=no damage to plant.
(§5) Expected results were calculated using the Colby Formula.

Data set [6] deals with Amaranthus viridis (AMAVI). Nature of the data set: B2 drilled field trial Brazil, post-emergence, AMAVI. The conditions noted are these: 100 g ai/ha, 100=total damage, 0=no damage. The procedure: as §3, §4, §5
For data set [7], the system named is Bidens pilosa (BIDPI). Nature of the data set: B2 drilled field trial Brazil, post-emergence, BIDPI. The settings on record: 100 g ai/ha, 100=total damage, 0=no damage. As for the experimental part:
as §3, §4, §5

Data set [8] concerns Brachiaria plantaginea (BRAPL). The data set is described as follows: B2 drilled field trial Brazil, post-emergence, BRAPL. The settings on record: 100 g ai/ha, 100=total damage, 0=no damage. As for the experimental part:
as §3, §4, §5

In data set [9] the test system is soybean (Glycine max GLXMA). Nature of the data set: B2 drilled field trial Brazil, post-emergence, soybean. The conditions noted are these: 100 g ai/ha, 100=total damage, 0=no damage. The procedure:
as §3, §4, §5

For the compound `COc1ccc(-n2nc(C3CC3)cc(C(=O)C3C(=O)C(C)(C)C(=O)C(C)(C)C3=O)c2=O)cc1OC` [Compound 2.11, 6-[6-cyclopropyl-2-(3,4-dimethoxyphenyl)-3-oxo-pyridazine-4-carbonyl]-2,2,4,4-tetramethyl-cyclohexane-1,3,5-trione], the ECHCG in data set [1] (Rate 125 g/ha) and in data set [1] (Rate 250 g/ha) was 100 each time. Moreover, the HORVW in data set [2] (Rate 125 g/ha) and in data set [2] (Rate 250 g/ha) was 0 throughout. The AMARE in data set [3] (Rate 125 g/ha) and in data set [3] (Rate 250 g/ha) was 100 throughout. Moreover, the ABUTH in [4] (Rate 125 g/ha) and in data set [4] (Rate 250 g/ha) was 100 in each case.
As to `COc1ccc(-n2nc(C)cc(C(=O)C3C(=O)C4CCC(C4)C3=O)c2=O)cc1OC` (stereo not drawn) [Compound 2.1, 3-[2-(3,4-dimethoxyphenyl)-6-methyl-3-oxo-pyridazine-4-carbonyl]bicyclo[3.2.1]octane-2,4-dione], the ECHCG in data set [1] (Rate 125 g/ha) and in data set [1] (Rate 250 g/ha) was 100 throughout. In addition, the HORVW in data set [2] (Rate 125 g/ha) and in data set [2] (Rate 250 g/ha) was 0 in each case. Also, the AMARE in data set [3] (Rate 125 g/ha) and in data set [3] (Rate 250 g/ha) was 100 in each case. In addition, the ABUTH in data set [4] (Rate 125 g/ha) and in data set [4] (Rate 250 g/ha) was 100 each time.
As for `COc1ccc(-n2nc(C)cc(C(=O)C3C(=O)CC(C)(C)CC3=O)c2=O)cc1OC` [Compound 2.4], the ECHCG in [1] (Rate 125 g/ha) and in data set [1] (Rate 250 g/ha) was 100 in each case. Also, the HORVW was 0 in data set [2] (Rate 125 g/ha) and 10 in data set [2] (Rate 250 g/ha). Further, the AMARE in [3] (Rate 125 g/ha) and in data set [3] (Rate 250 g/ha) was 100 each time. Further, the ABUTH in data set [4] (Rate 125 g/ha) and in data set [4] (Rate 250 g/ha) was 100 in each case.
As to `COc1ccc(-n2nc(C3CC3)cc(C(=O)C3C(=O)C4CCC(C4)C3=O)c2=O)cc1OC` (stereo not drawn) [Compound 2.9], the ECHCG in [1] (Rate 125 g/ha) and in data set [1] (Rate 250 g/ha) was 100 in each case. In addition, the HORVW in data set [2] (Rate 125 g/ha) stood at 0; in [2] (Rate 250 g/ha) it was 10. Also, the AMARE is 90 in data set [3] (Rate 125 g/ha) and 100 in data set [3] (Rate 250 g/ha). Also, the ABUTH in [4] (Rate 125 g/ha) and in [4] (Rate 250 g/ha) was 100 each time.
For `COc1ccc(-n2nc(C)cc(C(=O)C3C(=O)CC(C)CC3=O)c2=O)cc1OC` (stereo not drawn) [Compound 2.2], the ECHCG in data set [1] (Rate 125 g/ha) and in data set [1] (Rate 250 g/ha) was 100 each time. In addition, the HORVW in data set [2] (Rate 125 g/ha) and in data set [2] (Rate 250 g/ha) was 0 each time. Besides, the AMARE in data set [3] (Rate 125 g/ha) and in data set [3] (Rate 250 g/ha) was 100 each time. The ABUTH in data set [4] (Rate 125 g/ha) and in data set [4] (Rate 250 g/ha) was 100 in each case.
On to `COc1ccc(-n2nc(C)cc(C(=O)C3C(=O)CCCC3=O)c2=O)cc1OC` [Compound 2.3, 2-[2-(3,4-Dimethoxyphenyl)-6-methyl-3-oxo-pyridazine-4-carbonyl]cyclohexane-1,3-dione], for which the “EPPHL 7DAA Observed” value in [5] (7 days after application) is 58. Also, in data set [5] (30 days after application), the “EPPHL 30 DAA Observed” value is on record as 42. Besides, the ECHCG in data set [1] (Rate 125 g/ha) and in data set [1] (Rate 250 g/ha) was 100 throughout. Also, the “AMAVI 7DAA Observed” value in [6] (7 days after application) stood at 65. The “AMAVI 30 DAA Observed” value in [6] (30 days after application) came to 70. In addition, the “BIDPI 7DAA Observed” value in data set [7] (7 days after application) is given as 45. In addition, the “BIDPI 30 DAA Observed” value in data set [7] (30 days after application) was determined as 43. In addition, the “BRAPL 9DAA Observed” value in data set [8] (9 days after application) is 78. The “BRAPL 37 DAA Observed” value in data set [8] (37 days after application) is 37. Also, the HORVW in data set [2] (Rate 125 g/ha) and in data set [2] (Rate 250 g/ha) was 0 in each case. Moreover, the AMARE in [3] (Rate 125 g/ha) and in data set [3] (Rate 250 g/ha) was 100 in each case. Also, the ABUTH in [4] (Rate 125 g/ha) and in [4] (Rate 250 g/ha) was 100 throughout. The “GLXMA 9DAA Observed” value in data set [9] (9 days after application) is 55. Also, the “GLXMA 37 DAA Observed” value in data set [9] (37 days after application) came to 100.
As to `COc1ccc(-n2nc(C)cc(C(=O)C3C(=O)C(C)(C)C(=O)C(C)(C)C3=O)c2=O)cc1OC` [Compound 2.5], the ECHCG in data set [1] (Rate 125 g/ha) and in data set [1] (Rate 250 g/ha) was 90 each time. The HORVW in data set [2] (Rate 125 g/ha) and in data set [2] (Rate 250 g/ha) was 0 each time. The AMARE in data set [3] (Rate 125 g/ha) and in data set [3] (Rate 250 g/ha) was 100 each time. Besides, the ABUTH in [4] (Rate 125 g/ha) and in data set [4] (Rate 250 g/ha) was 100 throughout.
